Experimental data as given in patent publication US9073875B2, “Compounds useful as inhibitors of indoleamine 2,3-dioxygenase” (Vertex Pharmaceuticals Incorporated, priority 2012, dated 2015).

Target: T1, IDO1 (Homo sapiens, UniProt P14902)
T1 construct: HeLa cells in which IDO1 expression is induced by IFN-γ; endogenous in cells; host or cells: HeLa cells stimulated with human recombinant IFN-γ
Assay: Cellular IDO1 Inhibition Assay (L-kynurenine production by IFN-γ-stimulated HeLa cells)
Assay type: cell-based
Details: IDO1 induced by IFN-γ, 250 μM L-tryptophan, 48 hours, L-kynurenine by Ehrlich's reagent, maximal concentration 40 μM
Method: Compounds can be screened for their ability to inhibit intracellular IDO1 activity, by measuring the production of L-kynurenine by HeLa cells in which IDO1 expression is induced by IFN-γ. Kynurenine levels can be determined by chemical conversion of L-kynurenine with Ehrlich's reagent (Yue et. al., J Med Chem 2009 Dec. 10; 52(23):7364-7).
HeLa cells were plated at 20,000 cells per well in 96-well culture plates (Costar 3598) in DMEM (Sigma D5671) supplemented with 10% fetal bovine serum (SAFC Biosciences 12003C), Penicillin/Streptomycin solution diluted 1:100 (Sigma P7539), 4 mM L-glutamine (Sigma G7513), 1% Non Essential Aminoacids (Sigma M7145) and 1 mM Sodium Pyruvate (Sigma S8636). Cells were allowed to adhere for 24 hours at 37° C. in 5% CO2. Subsequently compounds were first serially diluted 1/3 in DMSO then further diluted in media and finally added to the cells, giving a maximal final concentration of 40 μM. Additional medium containing L-tryptophan to a final concentration of 250 μM (Sigma T0254) and human recombinant IFN-γ (R&D Systems 285-IF) were added to the wells to stimulate IDO1 production. Cells were incubated at 37° C. in 5% CO2 for 48 hours.
For the measurement of L-kynurenine in HeLa supernatants, plates were centrifuged at 1000 RPM for 5 minutes and 140 μl of media transferred into a polypropylene 96 well plate (Costar 3879) containing 10 μl of 26% Trichloroacetic Acid in water (Sigma T9159). Plates were then sealed using a plate sealer (PlateLoc, Agilent Technology) and incubated at 50° C. for 30 minutes. Plates were centrifuged at 2400 RPM for 10 minutes and 100 μl of media transferred to polystyrene 96-well plates together with 100 μl of Ehrlich's reagent (2% p-Dimethylaminobenzaldehyde, (Sigma D2004) in acetic acid (Fisher, A/400/PB17)). Following the addition of Ehrlich's reagent the absorbance at 490 nm was read using a spectrophotometer (Spectramax Plus, Molecular Devices). Kynurenine levels were plotted against compound concentrations to generate dose response curves and obtain […] values for each active compound using Genedata Screener® Software.
Cellular […] values for each compound may be found in Table 2, below, wherein A=<0.1 μM; B=0.1 μM-1 μM; and C=1 μM-40 μM.

T1 sequence (P14902 whole entry): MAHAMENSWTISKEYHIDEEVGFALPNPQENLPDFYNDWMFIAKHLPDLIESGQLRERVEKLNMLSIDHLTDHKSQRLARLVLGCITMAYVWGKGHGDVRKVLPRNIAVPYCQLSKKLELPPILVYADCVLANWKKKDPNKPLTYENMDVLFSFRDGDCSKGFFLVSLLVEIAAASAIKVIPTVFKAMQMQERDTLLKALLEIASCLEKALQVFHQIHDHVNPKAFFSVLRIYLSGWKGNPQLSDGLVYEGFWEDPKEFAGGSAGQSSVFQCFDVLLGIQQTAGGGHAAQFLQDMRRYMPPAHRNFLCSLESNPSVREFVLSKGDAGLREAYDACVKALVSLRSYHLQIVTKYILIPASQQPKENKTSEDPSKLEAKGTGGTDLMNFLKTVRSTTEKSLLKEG

CCc1cc(Cl)ccc1Nc1cnn[nH]1 [Compound I-1]
IC50: < 0.1 µM

Clc1ccc(Nc2cn[nH]n2)cc1 [Compound I-2]
IC50: < 0.1 µM

Brc1ccc(Nc2c[nH]nn2)cc1 [Compound I-3]
IC50: < 0.1 µM

COCc1cc(Cl)ccc1Nc1cnn[nH]1 [Compound I-4]
IC50: < 0.1 µM

Cc1cc(Cl)ccc1Nc1c[nH]nn1 [Compound I-5]
IC50: < 0.1 µM

COCCc1cc(Cl)ccc1Nc1cn[nH]n1 [Compound I-6]
IC50: < 0.1 µM

CCc1cc(Nc2cnn[nH]2)ccc1Cl [Compound I-7]
IC50: 0.1 to 1 µM

COc1cc(Nc2cn[nH]n2)ccc1Cl [Compound I-8]
IC50: 0.1 to 1 µM

OCc1cc(Cl)ccc1Nc1cnn[nH]1 [Compound I-9, (2-((2H-1,2,3-triazol-4-yl)amino)-5-chlorophenyl)methanol]
IC50: 0.1 to 1 µM

Clc1ccc(Nc2c[nH]nn2)c(OCCN2CCOCC2)c1 [Compound I-10]
IC50: 0.1 to 1 µM

Clc1cccc(Nc2cnn[nH]2)c1 [Compound I-11]
IC50: 0.1 to 1 µM

COc1cc(Cl)ccc1Nc1cn[nH]n1 [Compound I-12]
IC50: 0.1 to 1 µM

Fc1ccc(Nc2cnn[nH]2)cc1Cl [Compound I-13, N-(3-chloro-4-fluorophenyl)-2H-1,2,3-triazol-4-amine]
IC50: 0.1 to 1 µM

Fc1cc(Nc2c[nH]nn2)ccc1Cl [Compound I-14]
IC50: 0.1 to 1 µM

Cc1cc(Cl)cc(C)c1Nc1cnn[nH]1 [Compound I-15]
IC50: 0.1 to 1 µM

Clc1cc(Cl)cc(Nc2cn[nH]n2)c1 [Compound I-16]
IC50: 0.1 to 1 µM

CNS(=O)(=O)CCc1cc(Cl)ccc1Nc1cnn[nH]1 [Compound I-17]
IC50: 0.1 to 1 µM

Fc1ccc(Nc2cnn[nH]2)cc1Br [Compound I-18]
IC50: 0.1 to 1 µM

Clc1ccc(Nc2cnn[nH]2)cc1Cl [Compound I-19]
IC50: 0.1 to 1 µM

CC(=O)NCc1cc(Cl)ccc1Nc1cnn[nH]1 [Compound I-20, N-(2-((2H-1,2,3-triazol-4-yl)amino)-5-chlorobenzyl)acetamide]
IC50: 0.1 to 1 µM

CS(=O)(=O)NCc1cc(Cl)ccc1Nc1cnn[nH]1 [Compound I-21]
IC50: 1 to 40 µM

Clc1ccc(Nc2cnn[nH]2)cn1 [Compound I-22, 6-chloro-N-(2H-1,2,3-triazol-4-yl)pyridin-3-amine]
IC50: 1 to 40 µM

CN(Cc1cc(Cl)ccc1Nc1c[nH]nn1)C(=O)OC(C)(C)C [Compound I-23]
IC50: 1 to 40 µM

Fc1ccc(Nc2cnn[nH]2)cc1 [Compound I-24]
IC50: 0.1 to 1 µM

Clc1ccc(Nc2cn[nH]n2)c(I)c1 [Compound I-25]
IC50: 1 to 40 µM

Clc1ccc(Nc2cnn[nH]2)c(Cl)c1 [Compound I-27]
IC50: 1 to 40 µM

O=C(O)C1CC(Cc2cc(Cl)ccc2Nc2cn[nH]n2)C1 (centres unmarked) [Compound I-28, 3-(2-((2H-1,2,3-triazol-4-yl)amino)-5-chlorobenzyl)cyclobutanecarboxylic acid]
IC50: 1 to 40 µM

Clc1ccccc1Nc1cnn[nH]1 [Compound I-29]
IC50: 1 to 40 µM

Fc1cc(Cl)ccc1Nc1cnn[nH]1 [Compound I-30]
IC50: 1 to 40 µM

O=C(O)CCc1cc(Cl)ccc1Nc1cn[nH]n1 [Compound I-31]
IC50: 1 to 40 µM

CC(C)C(Cc1cc(Cl)ccc1Nc1cn[nH]n1)C(=O)O (centres unmarked) [Compound I-32]
IC50: 1 to 40 µM

CC(C)(Cc1cc(Cl)ccc1Nc1cn[nH]n1)C(=O)O [Compound I-33, 3-(2-((2H-1,2,3-triazol-4-yl)amino)-5-chlorophenyl)-2,2-dimethylpropanoic acid]
IC50: 1 to 40 µM

NCc1cc(Cl)ccc1Nc1cnn[nH]1 [Compound I-34, N-(2-(aminomethyl)-4-chlorophenyl)-2H-1,2,3-triazol-4-amine]
IC50: 1 to 40 µM

CC(C)(C)C(Cc1cc(Cl)ccc1Nc1cn[nH]n1)C(=O)O (centres unmarked) [Compound I-35]
IC50: 1 to 40 µM

Cc1cc(F)ccc1Nc1c[nH]nn1 [Compound I-36, N-(4-fluoro-2-methylphenyl)-2H-1,2,3-triazol-4-amine]
IC50: < 0.1 µM

Brc1cccc(Nc2cn[nH]n2)c1 [Compound I-37]
IC50: 0.1 to 1 µM

Cc1cc(Nc2cnn[nH]2)ccc1Cl [Compound I-38]
IC50: 0.1 to 1 µM

Cc1c(Cl)cccc1Nc1cnn[nH]1 [Compound I-39]
IC50: 0.1 to 1 µM

C=Cc1cc(Cl)ccc1Nc1cnn[nH]1 [Compound I-40]
IC50: < 0.1 µM

Cc1cc(Cl)cc(Nc2cnn[nH]2)c1 [Compound I-41]
IC50: 0.1 to 1 µM

Cc1ccc(Cl)cc1Nc1cnn[nH]1 [Compound I-42]
IC50: < 0.1 µM

CN(C)S(=O)(=O)CCc1cc(Cl)ccc1Nc1cnn[nH]1 [Compound I-43]
IC50: 0.1 to 1 µM

N#Cc1cc(Nc2cn[nH]n2)ccc1Cl [Compound I-44, 5-((2H-1,2,3-triazol-4-yl)amino)-2-chlorobenzonitrile]
IC50: 0.1 to 1 µM

Fc1cccc(Nc2cnn[nH]2)c1 [Compound I-45, N-(3-fluorophenyl)-2H-1,2,3-triazol-4-amine]
IC50: 0.1 to 1 µM

Clc1ccc(Nc2cnn[nH]2)c(CCN2CCOCC2)c1 [Compound I-46]
IC50: 0.1 to 1 µM

Clc1ccc(Nc2cnn[nH]2)c(CCCN2CCOCC2)c1 [Compound I-47]
IC50: 0.1 to 1 µM

CN1CCN(CCOc2cc(Cl)ccc2Nc2cnn[nH]2)CC1 [Compound I-48]
IC50: 0.1 to 1 µM
